pIC50: −log10 of the molar value. Structures can show the parent of a compound that is named as a salt. Activity calls are given as the source filed them. No cut-off for these calls is given here.
What was measured:
[1] = Antiproliferative activity against human doxorubicin-resistant MES-SA/Dx5-Rx1 cells; type: functional
U-251 [2] = assay: Antiproliferative activity against human U251 cells; type: functional, cell-based
[3] = Antiproliferative activity against human MES-SA cells; type: functional, cell-based
Mus musculus = assay: AUC (0 to infinity) in BALB/c mouse at 5 mg/kg, iv; type: ADME, organism-based, Brain; parameters: time infinity, dose 5 mg/kg, route intravenous; conditions: in vivo
[4] = Brain penetration index, ratio of AUC (0 to infinity) in brain to plasma of BALB/c mouse at 5 mg/kg, iv; type: ADME, organism-based; parameters: dose 5 mg/kg, route intravenous
[5] = Tmax in BALB/c mouse at 5 mg/kg, iv; type: ADME, organism-based; parameters: dose 5 mg/kg, route intravenous; conditions: in vivo
[6] = Half life in BALB/c mouse at 5 mg/kg, iv; type: ADME, organism-based; parameters: dose 5 mg/kg, route intravenous; conditions: in vivo
SF-295 [7] = assay: Antiproliferative activity against human SF295 cells; type: functional, cell-based
[8] = Fraction unbound in BALB/c mouse brain at 5 mg/kg, iv; type: ADME, organism-based; parameters: dose 5 mg/kg, route intravenous
[9] = CSF penetration index, ratio of AUC (0 to infinity) in CSF to plasma of Sprague-Dawley rat at 4 mg/kg, iv; type: ADME, organism-based; parameters: dose 4 mg/kg, route intravenous
SF-295 [10] = assay: Antitumor activity against human SF295 cells infected in athymic mouse assessed as increase in mouse survival at 0.36 to 0.80 mg/kg relative to control; type: functional, organism-based
U-251 [11] = assay: Antitumor activity against human U251 cells infected in athymic mouse assessed as increase in mouse survival at 1.1 to 2.5 mg/kg relative to control; type: functional; conditions: dose mg/kg 1.1-2.5

pIC50 (U-251 [2])	AUC (Mus musculus) [ng·h/g]	Ratio AUC [4] [mL/g]	Tmax [5] [min]	half-life [6] [h]	fraction unbound [8]	Kp [9]	Compound	pIC50 [1]	pIC50 [3]	pIC50 (SF-295 [7])	Activity (SF-295 [10])	Activity (U-251 [11]) [%]
8.43							C=C(C)CN(CC)C[C@H](C[C@H]1O[C@H]2C[C@H]3O[C@@H](CC[C@@H]4O[C@@H](CC[C@@]56C[C@H]7O[C@H]8[C@@H](O5)[C@H]5O[C@H](CC[C@@H]5O[C@H]8[C@H]7O6)CC(=O)C[C@@H]2[C@H]1OC)CC4=C)C[C@@H](C)C3=C)OC	8.56	9.64			
9.06							C=C1C[C@@H]2CC[C@@]34C[C@H]5O[C@H]6[C@@H](O3)[C@H]3O[C@H](CC[C@@H]3O[C@H]6[C@H]5O4)CC(=O)C[C@@H]3[C@@H](OC)[C@@H](CC(=O)CN4CCOCC4)O[C@H]3C[C@H]3O[C@@H](CC[C@@H]1O2)C[C@@H](C)C3=C	8.51	9.60			
9.48							C=C1C[C@@H]2CC[C@@]34C[C@H]5O[C@H]6[C@@H](O3)[C@H]3O[C@H](CC[C@@H]3O[C@H]6[C@H]5O4)CC(=O)C[C@@H]3[C@@H](OC)[C@@H](C[C@@H](CN4CCC(C(F)(F)F)CC4)OC)O[C@H]3C[C@H]3O[C@@H](CC[C@@H]1O2)C[C@@H](C)C3=C	9.08	9.85			
8.71	1351	1.4	4.8	0.9	0.113	2.2	C=C1C[C@@H]2CC[C@@]34C[C@H]5O[C@H]6[C@@H](O3)[C@H]3O[C@H](CC[C@@H]3O[C@H]6[C@H]5O4)CC(=O)C[C@@H]3[C@@H](OC)[C@@H](C[C@@H](CN4CCOCC4)OC)O[C@H]3C[C@H]3O[C@@H](CC[C@@H]1O2)C[C@@H](C)C3=C	8.72	9.80			
8.84	10200	7.7	15	4.6	0.101		C=C1C[C@@H]2CC[C@@]34C[C@H]5O[C@H]6[C@@H](O3)[C@H]3O[C@H](CC[C@@H]3O[C@H]6[C@H]5O4)CC(=O)C[C@@H]3[C@@H](OC)[C@@H](CCCN4CCOCC4)O[C@H]3C[C@H]3O[C@@H](CC[C@@H]1O2)C[C@@H](C)C3=C	8.89	10.08			

More lines, now with the values behind:

Compound	pIC50 (U-251 [2])	AUC (Mus musculus) [ng·h/g]	Ratio AUC [4] [mL/g]	Tmax [5] [min]	half-life [6] [h]	fraction unbound [8]	Kp [9]	pIC50 [1]	pIC50 [3]	pIC50 (SF-295 [7])	Activity (SF-295 [10])	Activity (U-251 [11]) [%]
C=C1C[C@@H]2CC[C@@]34C[C@H]5O[C@H]6[C@@H](O3)[C@H]3O[C@H](CC[C@@H]3O[C@H]6[C@H]5O4)CC(=O)C[C@@H]3[C@@H](OC)[C@@H](C[C@H](O)CN)O[C@H]3C[C@H]3O[C@@H](CC[C@@H]1O2)C[C@@H](C)C3=C [ERIBULIN MESYLATE]	8.23	435	0.55	30	46					7.56		
C=C(C)CN(CC)CC[C@H]1O[C@H]2C[C@H]3O[C@@H](CC[C@@H]4O[C@@H](CC[C@@]56C[C@H]7O[C@H]8[C@@H](O5)[C@H]5O[C@H](CC[C@@H]5O[C@H]8[C@H]7O6)CC(=O)C[C@@H]2[C@H]1OC)CC4=C)C[C@@H](C)C3=C	9.21							8.54	9.64			
C=C1C[C@@H]2CC[C@@]34C[C@H]5O[C@H]6[C@@H](O3)[C@H]3O[C@H](CC[C@@H]3O[C@H]6[C@H]5O4)CC(=O)C[C@@H]3[C@@H](OC)[C@@H](C[C@@H](COC)OC)O[C@H]3C[C@H]3O[C@@H](CC[C@@H]1O2)C[C@@H](C)C3=C	9.13								9.62			
C=C1C[C@@H]2CC[C@@]34C[C@H]5O[C@H]6[C@@H](O3)[C@H]3O[C@H](CC[C@@H]3O[C@H]6[C@H]5O4)CC(=O)C[C@@H]3[C@@H](OC)[C@@H](CCNCC(F)F)O[C@H]3C[C@H]3O[C@@H](CC[C@@H]1O2)C[C@@H](C)C3=C	8.39							7.50	8.72			
C=C1C[C@@H]2CC[C@@]34C[C@H]5O[C@H]6[C@@H](O3)[C@H]3O[C@H](CC[C@@H]3O[C@H]6[C@H]5O4)CC(=O)C[C@@H]3[C@@H](OC)[C@@H](CCN4CCC(C(F)(F)F)CC4)O[C@H]3C[C@H]3O[C@@H](CC[C@@H]1O2)C[C@@H](C)C3=C	9.55							9.12	9.96			
C=C1C[C@@H]2CC[C@@]34C[C@H]5O[C@H]6[C@@H](O3)[C@H]3O[C@H](CC[C@@H]3O[C@H]6[C@H]5O4)CC(=O)C[C@@H]3[C@@H](OC)[C@@H](C[C@@H](CN4CC(C)CC(C)C4)OC)O[C@H]3C[C@H]3O[C@@H](CC[C@@H]1O2)C[C@@H](C)C3=C (some centres not stated)	8.59	3108	1.7	4.8	5.3	0.034		8.62	9.89	10.00		
C=C1C[C@@H]2CC[C@@]34C[C@H]5O[C@H]6[C@@H](O3)[C@H]3O[C@H](CC[C@@H]3O[C@H]6[C@H]5O4)CC(=O)C[C@@H]3[C@@H](OC)[C@@H](CCN4CCOCC4)O[C@H]3C[C@H]3O[C@@H](CC[C@@H]1O2)C[C@@H](C)C3=C	8.90							8.60	9.92			
CC(=O)O[C@H]1C(=O)[C@@]2(C)[C@H]([C@H](OC(=O)c3ccccc3)[C@]3(O)C[C@H](OC(=O)[C@H](O)[C@@H](NC(=O)c4ccccc4)c4ccccc4)C(C)=C1C3(C)C)[C@]1(OC(C)=O)CO[C@@H]1C[C@@H]2O [PACLITAXEL]								< 6.00		7.61		
C#CCN(C)C[C@H](C[C@H]1O[C@H]2C[C@H]3O[C@@H](CC[C@@H]4O[C@@H](CC[C@@]56C[C@H]7O[C@H]8[C@@H](O5)[C@H]5O[C@H](CC[C@@H]5O[C@H]8[C@H]7O6)CC(=O)C[C@@H]2[C@H]1OC)CC4=C)C[C@@H](C)C3=C)OC	9.74							9.02	9.74	9.39		
C=C(C)CN1CCO[C@@H](C[C@H]2O[C@H]3C[C@H]4O[C@@H](CC[C@@H]5O[C@@H](CC[C@@]67C[C@H]8O[C@H]9[C@@H](O6)[C@H]6O[C@H](CC[C@@H]6O[C@H]9[C@H]8O7)CC(=O)C[C@@H]3[C@H]2OC)CC5=C)C[C@@H](C)C4=C)C1	9.30	1362	1.8	4.8	1.2	0.024		8.82	9.60	9.59	Active	>175

— ChEMBL document CHEMBL1681743, “Novel second generation analogs of eribulin. Part III: Blood-brain barrier permeability and in vivo activity in a brain tumor model” (Bioorg Med Chem Lett, 2011)
